Reference: patent US20170080040A1, “DECOCTION OF OLIVE LEAVES” (priority 2014, published 2017)

Tests used:
[1] = Antioxidant activity: decoloring test of the cationic radical ABTS•+; conditions: mg lyophilized preparation per ml; absorbance at 734 nm; four determinations
Description: Biol. Med. 26: 1231, 1999) and by testing the neutralization of the radical 1,1-diphenyl-2-picrylhydrazyl (DPPH^•) (Brand-Williams et al.—Food Sci. Technol. 28: 25, 1995). […] (Yacoubi et al. —Neuropharmacology 45: 977, 2003). The antioxidant activity was evaluated according to the method reported by Re and collaborators (Re et al.—Free Rad. Biol. Med. 26: 1231, 1999). […] In the presence of an antioxidant the ABTS^•+ is reduced to colorless ABTS, determining a decoloring of the solution in which it is dissolved, which can be measured by spectrophotometry quantifying the absorbance at 734 nm. […] The antioxidant activity, expressed as IC50, was compared to that of Trolox, a similar water-soluble to vitamin E, and to that of an infusion of green tea, prepared with 10 g of leaves in 1 liter of water (from which 4.385 g of lyophilized infusion were obtained). For every sample four determinations were carried out and the result was expressed as average±standard deviation of the analyses done. The values of IC50 were calculated on the basis of the linear regression of the straight lines that put the logarithm of the concentrations tested in relation to the reduction of the absorbance measured, using the appropriate function of an electronic spreadsheet. The in vivo data were analyzed according to the Student's t-test, accepting as significant the values of p<0.05. […]

[2] = test system: mice CD-1 males; test: Stimulating activity: effect on loss of straightening reflex (sleep) induced by ethanol in mice; assay type: in vivo; conditions: caffeine 60 mg/kg
Text: The antioxidant and anti-radical activity was studied on decoctions 1 and 2, respectively, by testing the decolorization of the radical cation ABTS^• (2.2′-azino-bis-3-ethylbenzothiazoline-6-sulphonic acid) (Re et al.—Free Rad. Biol. Med. 26: 1231, 1999) and by testing the neutralization of the radical 1,1-diphenyl-2-picrylhydrazyl (DPPH^•) (Brand-Williams et al.—Food Sci. Technol. 28: 25, 1995). Finally, decoctions 1 and 2 were studied for potential stimulating activity, verifying the effect on sleep induced by ethanol in mice according to the method reported by Yacoubi et al. (Yacoubi et al. —Neuropharmacology 45: 977, 2003).
The stimulating activity of the decoctions of olive leaves was evaluated on the basis of the reduction of the hypnotic effect induced by ethanol in the mice (Yacoubi et al.—Neuropharmacology 45: 977, 2003). The animals were housed in groups of 5 and kept for at least a week in the same place where the test was carried out, at a constant temperature (23±1° C.) and relative humidity (50-60%), with a fixed artificial light cycle (07.00-19.00). The experiment was carried out in conformity with the laws in force that regulate the use of animals for scientific purposes (Italian Legislative Decree 116 of 27 Jan. 1992 and the Directives of the European Communities Council of 24 Nov. 1986/86/609/EEC).
At the moment of the experiment, each animal was positioned individually in a cage. The lyophilized decoctions, dissolved in water, were administered to the mice (dose: 120 mg/kg; volume of solution administered: 10 ml/kg) by means of gastric intubation, 30 minutes before the inter-peritoneal injection of an aqueous composition of ethanol at 20% (v/v; 4 g/kg). The control animals were administered 10 ml/kg of physiological solution. The induction of ethanol induced sedation in the animals, with the loss of the straightening reflex. In every animal both the duration of the latency phase that elapsed between the injection of the ethanol and the loss of the straightening reflex, and the duration of the loss of the straightening reflex were measured. The stimulating activity was evaluated on the basis of both the increase in the latency phase and also on the reduction in the duration of the loss of the straightening reflex. The effect was compared to that of caffeine, at a dose of 60 mg/kg. Each treatment group consisted of 10 animals.
The values of IC50 were calculated on the basis of the linear regression of the straight lines that put the logarithm of the concentrations tested in relation to the reduction of the absorbance measured, using the appropriate function of an electronic spreadsheet. The in vivo data were analyzed according to the Student's t-test, accepting as significant the values of p<0.05.
The stimulating activity of decoctions 1 and 2 was evaluated in the mice, after oral administration of 120 mg/kg of lyophilized decoction (corresponding to 9.6 and 11.9) ml of decoction 1 and 2 liquid/kg), verifying the effect on the loss of straightening induced by the intraperitoneal injection of ethanol (4 g/kg). The parameters evaluated were the increase in the latency phase between the ethanol injection and the loss of the straightening reflex, and the duration of the loss of the straightening reflex (interval between the loss and the re-acquisition of the straightening reflex). As a reference compound, caffeine was used at a dose of 60 mg/kg (corresponding to an average dose of coffee equal to about 40 ml/kg).

[3] = mice, oral 30 min before ethanol 4 g/kg i.p., decoctions 120 mg/kg lyophilized, n = 10
[4] = mice, oral, decoctions 120 mg/kg, ethanol 4 g/kg i.p.

| Lyophilized Decoction IC50 Average ± D.S. (antioxidant activity, ABTS) [1] | SMILES | reduction in the duration of the loss of the straightening reflex ([2]; given as positive reduction, decoctions 120 mg/kg) | Duration Average ± E.S. (of the loss of the straightening reflex) [2, 3] | Latency Average ± E.S. (between ethanol injection and loss of the straightening reflex) [2, 3] | Duration Difference (%) with respect to the controls [2, 4] | Latency Difference (%) with respect to the controls (increase in the latency period) [2, 4] |
| --- | --- | --- | --- | --- | --- | --- |
| 30 µg/mL | Cc1c(C)c2c(c(C)c1O)CCC(C)(C(=O)O)O2 (stereo not drawn) [Trolox] | – | – | – | – | – |
| – | Cn1c(=O)c2c(ncn2C)n(C)c1=O [Caffeine, caffeine] | 43% | 23.5 ± 3.3 min | 215.7 ± 18.2 s | −43% | 48% |
